Reference: US20230100838A1 (Revolution Medicines, Inc., priority 2019, published 2023)

What was measured:
Assay type in all cases: binding
[1] = target: T1, GDP-loaded K-Ras (1-169) G12D, C51S, C80L, C118S (Homo sapiens, UniProt P01116, C118S/C51S/C80L/G12D); assay: K-Ras G12D(GDP) cross-linking assay (conjugate formation, TOF mass spectrometry); details: Table 5; percent covalently modified K-Ras by MS; room temperature; typical compound conc. 2, 10, 25 μM, endpoints 1 and 24 h
T1 construct: GDP-loaded K-Ras (1-169) G12D, C51S, C80L, C118S
Outline: (§1)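 5 μM protein (final, from 50 μM) in HEPES/NaCl/MgCl2 buffer pH 7.4 with compound typically at 2, 10 and 25 μM, room temperature, 1 and 24 h endpoints; formic acid quench. Intact-protein LC–TOF MS; percent modification is covalent adduct peak height over total K-Ras peak height.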

[2] = target: T2, GDP-loaded K-Ras (1-169) C51S, C80L, C118S (Homo sapiens, UniProt P01116, C118S/C51S/C80L); assay: K-Ras WT (GDP) cross-linking assay (conjugate formation, TOF mass spectrometry); details: Table 5; percent covalently modified K-Ras by MS; room temperature; typical compound conc. 2, 10, 25 μM, endpoints 1 and 24 h
T2 construct: GDP-loaded K-Ras (1-169) C51S, C80L, C118S
Outline: as §1

K-Ras G12S = K-Ras G12S (Homo sapiens, UniProt P01116, G12S); assay: K-Ras G12S cross-linking assay (comparable procedure, conjugate formation, TOF mass spectrometry); details: Table 5, percent covalently modified K-Ras by MS
Outline: as §1

Compound | G12D x-linking (%) [1] | WT x-linking (%) [2] | G12S x-linking (%) (K-Ras G12S)
COCCN=C=NCC1CCN(c2nc(=O)n(-c3c(C)ccnc3C(C)C)c3nc(-c4ccccc4F)c(F)cc23)CC1 [Example 70, 6-fluoro-7-(2-fluorophenyl)-1-(2-isopropyl-4-methylpyridin-3-yl)-4-(4-(((((2-methoxyethyl)imino)methylene)amino)methyl)piperidin-1-yl)pyrido[2,3-d]pyrimidin-2(1H)-one] | ++ (20 < x ≤ 40) | ++ (20 < x ≤ 100) | ++ (10 < x ≤ 100)
CCCN=C=NCC1CCN(c2nc(=O)n(-c3c(C)ccnc3C(C)C)c3nc(-c4ccccc4F)c(F)cc23)CC1 [Example 71, 6-fluoro-7-(2-fluorophenyl)-1-(2-isopropyl-4-methylpyridin-3-yl)-4-(4-((((propylimino)methylene)amino)methyl)piperidin-1-yl)pyrido[2,3-d]pyrimidin-2(1H)-one] | ++ (20 < x ≤ 40) | ++ (20 < x ≤ 100) | ++ (10 < x ≤ 100)
COCCN=C=N[C@@H]1CCN(c2nc(OC[C@@H]3CCCN3C)nc3c2CCN(c2cccc4cccc(C)c24)C3)C[C@@H]1CC#N [Example 75, 2-((3S,4R)-4-((((2-methoxyethyl)imino)methylene)amino)-1-(7-(8-methylnaphthalen-1-yl)-2-(((S)-1-methylpyrrolidin-2-yl)methoxy)-5,6,7,8-tetrahydropyrido[3,4-d]pyrimidin-4-yl)piperidin-3-yl)acetonitrile] | +++ (40 < x ≤ 100) | + (0 < x ≤ 20) | ++ (10 < x ≤ 100)
COCC1(N=C=NC2CCN(c3nc(OC[C@@H]4CCCN4C)nc4c3CCN(c3cccc5cccc(C)c35)C4)CC2)CC1 [Example 80, N-(1-(methoxymethyl)cyclopropyl)-N-(1-(7-(8-methylnaphthalen-1-yl)-2-(((S)-1-methylpyrrolidin-2-yl)methoxy)-5,6,7,8-tetrahydropyrido[3,4-d]pyrimidin-4-yl)piperidin-4-yl)methanediimine] | ++ (20 < x ≤ 40) | + (0 < x ≤ 20) | ++ (10 < x ≤ 100)
COc1ccccc1CN=C=NC1CCN(c2nc(OC[C@@H]3CCCN3C)nc3c2CCN(c2cccc4cccc(C)c24)C3)CC1 [Example 81, N-(2-methoxybenzyl)-N-(1-(7-(8-methylnaphthalen-1-yl)-2-(((S)-1-methylpyrrolidin-2-yl)methoxy)-5,6,7,8-tetrahydropyrido[3,4-d]pyrimidin-4-yl)piperidin-4-yl)methanediimine] | + (0 < x ≤ 20) | + (0 < x ≤ 20) | + (0 < x ≤ 10)
COc1ccc(CN=C=NC2CCN(c3nc(OC[C@@H]4CCCN4C)nc4c3CCN(c3cccc5cccc(C)c35)C4)CC2)c(OC)c1 [Example 82, N-(2,4-dimethoxybenzyl)-N-(1-(7-(8-methylnaphthalen-1-yl)-2-(((S)-1-methylpyrrolidin-2-yl)methoxy)-5,6,7,8-tetrahydropyrido[3,4-d]pyrimidin-4-yl)piperidin-4-yl)methanediimine] | + (0 < x ≤ 20) | + (0 < x ≤ 20) | + (0 < x ≤ 10)
Cc1cccc2cccc(N3CCc4c(nc(OC[C@@H]5CCCN5C)nc4N4CCC(N=C=NC5CCN(C)CC5)CC4)C3)c12 [Example 83, N-(1-(7-(8-methylnaphthalen-1-yl)-2-(((S)-1-methylpyrrolidin-2-yl)methoxy)-5,6,7,8-tetrahydropyrido[3,4-d]pyrimidin-4-yl)piperidin-4-yl)-N-(1-methylpiperidin-4-yl)methanediimine] | +++ (40 < x ≤ 100) | ++ (20 < x ≤ 100) | ++ (10 < x ≤ 100)
Cc1cccc2cccc(N3CCc4c(nc(OC[C@@H]5CCCN5C)nc4N4CCC(N=C=NC5CCN(c6ccccc6)CC5)CC4)C3)c12 [Example 84, N-(1-(7-(8-methylnaphthalen-1-yl)-2-(((S)-1-methylpyrrolidin-2-yl)methoxy)-5,6,7,8-tetrahydropyrido[3,4-d]pyrimidin-4-yl)piperidin-4-yl)-N-(1-phenylpiperidin-4-yl)methanediimine] | + (0 < x ≤ 20) | + (0 < x ≤ 20) | + (0 < x ≤ 10)
Cc1cccc2cccc(N3CCc4c(nc(OC[C@@H]5CCCN5C)nc4N4CCC(N=C=NCCCN5CCOCC5)CC4)C3)c12 [Example 85, N-(1-(7-(8-methylnaphthalen-1-yl)-2-(((S)-1-methylpyrrolidin-2-yl)methoxy)-5,6,7,8-tetrahydropyrido[3,4-d]pyrimidin-4-yl)piperidin-4-yl)-N-(3-morpholinopropyl)methanediimine] | +++ (40 < x ≤ 100) | ++ (20 < x ≤ 100) | ++ (10 < x ≤ 100)
Cc1cccc2cccc(N3CCc4c(nc(OC[C@@H]5CCCN5C)nc4N4CCC(N=C=NCc5ccon5)CC4)C3)c12 [Example 86, N-(isoxazol-3-ylmethyl)-N-(1-(7-(8-methylnaphthalen-1-yl)-2-(((S)-1-methylpyrrolidin-2-yl)methoxy)-5,6,7,8-tetrahydropyrido[3,4-d]pyrimidin-4-yl)piperidin-4-yl)methanediimine] | +++ (40 < x ≤ 100) | ++ (20 < x ≤ 100) | ++ (10 < x ≤ 100)
Cc1cccc2cccc(N3CCc4c(nc(OC[C@@H]5CCCN5C)nc4N4CCC(N=C=NCCn5ccnc5)CC4)C3)c12 [Example 87, N-(2-(1H-imidazol-1-yl)ethyl)-N-(1-(7-(8-methylnaphthalen-1-yl)-2-(((S)-1-methylpyrrolidin-2-yl)methoxy)-5,6,7,8-tetrahydropyrido[3,4-d]pyrimidin-4-yl)piperidin-4-yl)methanediimine] | +++ (40 < x ≤ 100) | ++ (20 < x ≤ 100) | ++ (10 < x ≤ 100)

Results, then the compound that gave them:

G12D x-linking (%) [1] | WT x-linking (%) [2] | G12S x-linking (%) (K-Ras G12S) | Compound
+++ (40 < x ≤ 100) | ++ (20 < x ≤ 100) | ++ (10 < x ≤ 100) | COCCN=C=N[C@H]1C[C@H](Nc2nc(OC[C@@H]3CCCN3C)nc3c2CCN(c2cccc4cccc(C)c24)C3)C1 [Example 72, N-((1r,3S)-3-((((2-methoxyethyl)imino)methylene)amino)cyclobutyl)-7-(8-methylnaphthalen-1-yl)-2-(((S)-1-methylpyrrolidin-2-yl)methoxy)-5,6,7,8-tetrahydropyrido[3,4-d]pyrimidin-4-amine]
+++ (40 < x ≤ 100) | ++ (20 < x ≤ 100) | ++ (10 < x ≤ 100) | COCCN=C=N[C@@H]1CCN(c2nc(OC[C@@H]3CCCN3C)nc3c2CCN(c2cccc4cccc(C)c24)C3)C1 [Example 73, N-(2-methoxyethyl)-N—((R)-1-(7-(8-methylnaphthalen-1-yl)-2-(((S)-1-methylpyrrolidin-2-yl)methoxy)-5,6,7,8-tetrahydropyrido[3,4-d]pyrimidin-4-yl)pyrrolidin-3-yl)methanediimine]
+++ (40 < x ≤ 100) | ++ (20 < x ≤ 100) | ++ (10 < x ≤ 100) | COCCN=C=N[C@H]1CCN(c2nc(OC[C@@H]3CCCN3C)nc3c2CCN(c2cccc4cccc(C)c24)C3)C1 [Example 74, N-(2-methoxyethyl)-N—((S)-1-(7-(8-methylnaphthalen-1-yl)-2-(((S)-1-methylpyrrolidin-2-yl)methoxy)-5,6,7,8-tetrahydropyrido[3,4-d]pyrimidin-4-yl)pyrrolidin-3-yl)methanediimine]
+++ (40 < x ≤ 100) | ++ (20 < x ≤ 100) | ++ (10 < x ≤ 100) | COCCN=C=NCC1CCN(c2nc(OC[C@@H]3CCCN3C)nc3c2CCN(c2cccc4cccc(C)c24)C3)CC1 [Example 77, N-(2-methoxyethyl)-N-((1-(7-(8-methylnaphthalen-1-yl)-2-(((S)-1-methylpyrrolidin-2-yl)methoxy)-5,6,7,8-tetrahydropyrido[3,4-d]pyrimidin-4-yl)piperidin-4-yl)methyl)methanediimine]
++ (20 < x ≤ 40) | + (0 < x ≤ 20) | + (0 < x ≤ 10) | COCCN=C=N[C@H]1CC[C@H](N(C)c2nc(OC[C@@H]3CCCN3C)nc3c2CCN(c2cccc4cccc(C)c24)C3)CC1 [Example 78, N-((1r,4S)-4-((((2-methoxyethyl)imino)methylene)amino)cyclohexyl)-N-methyl-7-(8-methylnaphthalen-1-yl)-2-(((S)-1-methylpyrrolidin-2-yl)methoxy)-5,6,7,8-tetrahydropyrido[3,4-d]pyrimidin-4-amine]
+++ (40 < x ≤ 100) | ++ (20 < x ≤ 100) | ++ (10 < x ≤ 100) | COCCN=C=N[C@H]1CC[C@@H](N(C)c2nc(OC[C@@H]3CCCN3C)nc3c2CCN(c2cccc4cccc(C)c24)C3)CC1 [Example 79, N-((1s,4R)-4-((((2-methoxyethyl)imino)methylene)amino)cyclohexyl)-N-methyl-7-(8-methylnaphthalen-1-yl)-2-(((S)-1-methylpyrrolidin-2-yl)methoxy)-5,6,7,8-tetrahydropyrido[3,4-d]pyrimidin-4-amine]
